Experimental data from US9434741B2, “Thieno[2,3-d]pyrimidine derivatives, preparation method and use thereof” (FUJIAN INSTITUTE OF RESEARCH ON THE STRUCTURE OF MATTER, …, priority 2012, dated 2016).

What was measured:
[1] = test system: colon cancer cell lines (HCT-116); assay: SRB screening of inhibitory activity against colon cancer cell lines (HCT-116); format: cell-based; conditions: HCT-116 cells, compound concentration 1×10^−4 M, 72 hours incubation, SRB method, A560; for inhibition at 100 µM: Homo sapiens, read-out: Inhibitory ratio (%)
Description: (§1) The inhibitory activity against colon cancer cell lines (HCT-116) and human lung cancer cell lines (A549) were screened with an SRB method. The procedure of screening was described in the reference (Li M. H., Miao Z. H., Tan W. F. et al. Clin. Cancer Res. 2004, 10(24): 8266-8274).
(§2) Detailed experimental procedure is as follows:
(§3) (1) According to the growth rate of tumor cells, colon cancer cell lines (HCT-116) in logarithmic growth phase were inoculated in 96-well culture plates and allowed to adhere to the wall for 24 h. The medicants with a concentration of 1×10^−4 M were added. Three replicate wells were set for the concentration, and saline control and non-apoptotic well of the corresponding concentration were set. The tumor/cancer cells were incubated for 72 hours at 37 in 5% CO2; (2) the plates were taken out, and the cells were fixed in each well with 10% cold […] (TCA) solution at 4 for 1 hour; (3) the fixation fluid was removed, and the plates were rinsed 5 times with distilled water and naturally dried in air; (4) SRB solution prepared from glacial acetic acid (1%) was added to stain at room temperature for 15 min; (5) the supernatant was removed, and the residue was washed 5 times with 1% acetic acid and air-dried; (6) finally Tris solution was added and the plates were shaken on a plate shaker for 5 min. Absorbance value at 560 nm (A560) was determined by using a wavelength-tunable microplate reader. Enzyme inhibitory ratio was calculated with the following formula: […]
(§4) The activities of the compounds represented by formula (I) or salts thereof of inhibiting colon cancer cell lines (HCT-116) and human lung cancer cell lines A549 at a concentration of 1×10^−4 M were determined.

[2] = test system: human lung cancer cell lines (A549); assay: SRB screening of inhibitory activity against human lung cancer cell lines (A549); format: cell-based; conditions: A549 cells, compound concentration 1×10^−4 M, SRB method; for inhibition at 100 µM: Homo sapiens, 72 h, read-out: Inhibitory ratio (%)
Description: as §1, §2, §3, §4

Row | Compound | inhibition at 100 µM [1] [%] | inhibition at 100 µM [2] [%] | other results
1 | COc1ccc(-c2cc(COc3ncnc4sc(C)c(C)c34)on2)cc1 [Compound S-103] | 71.1 | – | –
2 | Cc1sc2ncnc(OCc3cc(-c4ccc(Cl)cc4Cl)no3)c2c1C [Compound S-107] | 72.9 | – | –
3 | Cc1ccc(-c2cc(COc3ncnc4scc(C)c34)on2)cc1 [Compound S-2] | – | 80 | –
4 | CCc1cc2c(OCc3cc(-c4ccc(Cl)cc4Cl)no3)ncnc2s1 [Compound S-87] | 72.7 | – | –
5 | Cc1sc2ncnc(OCc3cc(-c4ccccc4)no3)c2c1C [Compound S-101] | 68.8 | 88 | Inhibitory ratio (%) [2]: 88.0%
6 | Cc1sc2ncnc(OCc3cc(-c4ccccc4Cl)no3)c2c1C [Compound S-106] | – | 71.6 | –
7 | Cc1csc2ncnc(OCc3cc(-c4ccccc4Cl)no3)c12 [Compound S-6] | – | 75.6 | –
8 | Cc1csc2ncnc(OCc3cc(-c4ccc(Br)cc4)no3)c12 [Compound S-8] | – | 85.9 | –
9 | Cc1csc2ncnc(OCc3cc(-c4ccccc4)no3)c12 [Compound S-1, 5-methyl-4-((3-phenyl-isoxazol-5-yl)-methoxy-)-thieno[2,3-d]pyrimidine] | – | 85 | –
10 | CCc1cc2c(OCc3cc(-c4ccc(Br)cc4)no3)ncnc2s1 [Compound S-88] | 60.9 | – | –
11 | c1ccc(-c2cc(COc3ncnc4sc5c(c34)CCCC5)on2)cc1 [Compound S-121] | – | 54.1 | –
12 | Cc1csc2ncnc(OCc3cc(-c4ccc(Cl)cc4)no3)c12 [Compound S-5] | – | 80.8 | –
13 | CCc1cc2c(OCc3cc(-c4ccc(OC)cc4)no3)ncnc2s1 [Compound S-83] | 69.6 | 89.4 | –
14 | COc1ccc(-c2cc(COc3ncnc4scc(C)c34)on2)cc1 [Compound S-3] | 70 | 86.4 | Inhibitory ratio (%) [1]: 70.0%
15 | Cc1ccc(-c2cc(COc3ncnc4sc(C)c(C)c34)on2)cc1 [Compound S-102] | 62.9 | – | –
